Read-outs that look alike come from different tables or passages of the source.
Tests used:
KDR (h) = KDR (h) (Homo sapiens, UniProt P35968); assay: KDR (VEGFR2) (enzymatic assay), TR-FRET; type: biochemical; settings: read-out: VEGFR 2 (KDR) pIC50 (converted)
Outline: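 Human KDR (150 ng/ml) was reacted with 500 nM Btn-Flt3 and 3 μM ATP in 50 mM HEPES pH 7.5, 6 mM MnCl2, 1 mM DTT, 0.1 mM Na3VO4, 0.01% Triton X-100, 1% DMSO, for 120 min at room temperature. Phosphorylation detected by TR-FRET (Eu-anti-P-Tyr/SA-XL665, 60 min), read in RFU.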

[1] = target: Ba/F3-FGFR4-transfected cells (Homo sapiens, UniProt P22455); assay: Ba/F3-FGFR4 cellular proliferation assay, Alamar Blue; type: cell-based
Chain of Ba/F3-FGFR4-transfected cells (P22455 whole entry, change not shown): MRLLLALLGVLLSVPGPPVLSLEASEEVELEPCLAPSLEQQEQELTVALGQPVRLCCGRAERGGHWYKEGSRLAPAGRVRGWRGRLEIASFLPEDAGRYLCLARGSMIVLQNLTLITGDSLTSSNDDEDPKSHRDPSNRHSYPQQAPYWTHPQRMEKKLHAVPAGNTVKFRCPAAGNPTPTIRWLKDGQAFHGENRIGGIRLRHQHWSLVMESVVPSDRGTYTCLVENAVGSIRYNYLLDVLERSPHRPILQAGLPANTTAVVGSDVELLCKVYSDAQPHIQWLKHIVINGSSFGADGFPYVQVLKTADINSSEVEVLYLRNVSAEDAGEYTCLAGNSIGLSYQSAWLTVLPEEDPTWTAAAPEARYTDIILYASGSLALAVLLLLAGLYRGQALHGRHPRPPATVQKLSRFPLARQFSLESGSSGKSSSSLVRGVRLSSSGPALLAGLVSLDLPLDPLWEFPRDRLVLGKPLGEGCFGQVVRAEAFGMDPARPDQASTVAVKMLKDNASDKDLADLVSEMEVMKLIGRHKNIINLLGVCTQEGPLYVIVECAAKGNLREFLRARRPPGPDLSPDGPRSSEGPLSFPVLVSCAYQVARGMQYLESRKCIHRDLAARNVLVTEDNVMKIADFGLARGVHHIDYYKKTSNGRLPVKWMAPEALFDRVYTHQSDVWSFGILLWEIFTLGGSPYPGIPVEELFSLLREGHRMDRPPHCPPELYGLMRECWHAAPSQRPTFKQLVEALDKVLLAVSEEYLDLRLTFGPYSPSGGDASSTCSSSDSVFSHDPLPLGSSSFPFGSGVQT
Outline: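 Ba/F3-FGFR4 cells (20000/well) in phenol red-free RPMI-1640 with 10% FBS are exposed to compound for 24 h at 37 °C, 5% CO2. Alamar Blue (resazurin) is then added for 4 h and fluorescence read at ex 540/em 590 nm.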

[2] = target: T1, Ba/F3-FGFR1-transfected cells (Homo sapiens, UniProt P11362); assay: Ba/F3-FGFR1 (minus IL3) cellular proliferation assay, Alamar Blue; type: cell-based
T1 construct: BAF3-FGFR1 (MIN IL3) pIC50; other: minus IL3
T1 sequence (P11362 whole entry, change not shown): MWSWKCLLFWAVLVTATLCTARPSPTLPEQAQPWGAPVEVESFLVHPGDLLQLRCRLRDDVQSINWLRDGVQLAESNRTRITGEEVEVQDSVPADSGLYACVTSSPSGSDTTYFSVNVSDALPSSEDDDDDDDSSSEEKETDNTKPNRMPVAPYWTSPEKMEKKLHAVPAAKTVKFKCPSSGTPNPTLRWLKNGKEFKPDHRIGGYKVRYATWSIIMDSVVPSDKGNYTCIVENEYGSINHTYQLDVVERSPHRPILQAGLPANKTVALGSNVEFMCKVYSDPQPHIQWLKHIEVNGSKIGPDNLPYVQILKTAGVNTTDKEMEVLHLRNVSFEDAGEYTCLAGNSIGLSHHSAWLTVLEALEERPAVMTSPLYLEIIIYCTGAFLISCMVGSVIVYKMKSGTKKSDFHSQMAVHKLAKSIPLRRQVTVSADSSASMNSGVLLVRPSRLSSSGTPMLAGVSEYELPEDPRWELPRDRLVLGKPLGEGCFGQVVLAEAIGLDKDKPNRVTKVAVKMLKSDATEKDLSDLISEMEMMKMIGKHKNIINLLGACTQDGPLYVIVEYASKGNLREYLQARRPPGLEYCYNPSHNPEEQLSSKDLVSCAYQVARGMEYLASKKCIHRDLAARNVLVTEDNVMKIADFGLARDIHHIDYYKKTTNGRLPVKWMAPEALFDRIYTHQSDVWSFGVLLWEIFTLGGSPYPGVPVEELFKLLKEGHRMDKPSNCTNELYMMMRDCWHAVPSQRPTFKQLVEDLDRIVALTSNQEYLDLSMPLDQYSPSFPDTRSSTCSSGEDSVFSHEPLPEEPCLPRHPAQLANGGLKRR
Outline: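 Compound is dispensed first, then FGFR1-transfected Ba/F3 cells are added at 20000 per well in phenol red-free RPMI-1640 containing 10% FBS. After 24 h at 37 °C, Alamar Blue is added for 4 h and fluorescence is measured at 540/590 nm.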

[3] = target: T2, Ba/F3-FGFR3-transfected cells (Homo sapiens, UniProt P22607); assay: Ba/F3-FGFR3 (minus IL3) cellular proliferation assay, Alamar Blue; type: cell-based
T2 construct: BAF3-FGFR3 (MIN IL3) pIC50; other: minus IL3
T2 sequence (P22607 whole entry, change not shown): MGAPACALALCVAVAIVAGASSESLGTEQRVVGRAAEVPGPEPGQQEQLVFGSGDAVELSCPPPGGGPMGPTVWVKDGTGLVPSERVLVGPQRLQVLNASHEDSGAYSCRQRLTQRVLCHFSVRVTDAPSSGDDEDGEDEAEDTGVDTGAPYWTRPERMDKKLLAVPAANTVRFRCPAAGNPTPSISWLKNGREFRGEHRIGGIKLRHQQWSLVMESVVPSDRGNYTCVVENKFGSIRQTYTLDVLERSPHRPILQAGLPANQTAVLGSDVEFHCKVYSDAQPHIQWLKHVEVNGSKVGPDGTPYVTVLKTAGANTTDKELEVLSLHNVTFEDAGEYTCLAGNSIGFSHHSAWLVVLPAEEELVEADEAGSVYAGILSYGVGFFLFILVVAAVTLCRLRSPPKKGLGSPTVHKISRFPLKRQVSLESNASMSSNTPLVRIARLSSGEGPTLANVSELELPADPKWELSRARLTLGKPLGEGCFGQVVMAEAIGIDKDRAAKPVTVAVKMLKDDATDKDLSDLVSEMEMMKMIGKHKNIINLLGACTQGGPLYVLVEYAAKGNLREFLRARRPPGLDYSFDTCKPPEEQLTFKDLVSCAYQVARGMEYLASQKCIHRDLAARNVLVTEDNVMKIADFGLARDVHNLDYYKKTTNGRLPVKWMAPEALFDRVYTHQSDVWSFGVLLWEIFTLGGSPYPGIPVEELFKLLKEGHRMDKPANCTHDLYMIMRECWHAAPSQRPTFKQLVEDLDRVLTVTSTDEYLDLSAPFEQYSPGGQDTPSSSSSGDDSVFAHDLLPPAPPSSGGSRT
Outline: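 Compound dilutions were dispensed first, then 20000 FGFR3-transfected Ba/F3 cells per well in serum-containing RPMI-1640 were added. After 24 h incubation at 37° C, Alamar Blue was applied for 4 h before relative fluorescence units were recorded. In the minus-IL3 format cells grow without cytokine; the other format contains 10 ng/ml murine IL3.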

[4] = tested on: Ba/F3-KDR-transfected cells; assay: Ba/F3-KDR (plus IL3) cellular proliferation assay, counterscreen with 10 ng/ml murine IL3; type: cell-based; settings: read-out: BAF3-KDR (PLUS IL3) pIC50 (converted)
Outline: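 Ba/F3-KDR-transfected cells, 20000 per well in phenol red free RPMI-1640 with 10% FBS, exposed to compound 24 hours at 37° C, 5% CO2; Alamar Blue then added for 4 hours and fluorescence read (ex. 540 nm, em. 590 nm). Plus-IL3 counterscreen run identically with 10 ng/ml murine IL3.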

FGFR1 (h) = FGFR1 (h) (Homo sapiens, UniProt P11362); assay: FGFR1 (enzymatic assay), TR-FRET; type: biochemical; settings: read-out: FGFR 1 pIC50 (converted)
[5] = tested on: Ba/F3-FGFR1-transfected cells; assay: Ba/F3-FGFR1 (plus IL3) cellular proliferation assay, counterscreen with 10 ng/ml murine IL3; type: cell-based; settings: read-out: BAF3-FGFR1 (PLUS IL3) pIC50 (converted)
Outline: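 Ba/F3-FGFR1 cells (20000/well) in RPMI-1640 with 10% FBS exposed to compound for 24 h at 37° C., 5% CO2, then Alamar Blue (resazurin) added for 4 h; fluorescence read at ex 540/em 590 nm. Counterscreen run identically with 10 ng/ml murine IL3.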

FGFR3 (h) = FGFR3 (h) (Homo sapiens, UniProt P22607); assay: FGFR3 (enzymatic assay), TR-FRET; type: biochemical; settings: read-out: FGFR 3 pIC50 (converted)
Chain of FGFR3 (h) (P22607 23-806): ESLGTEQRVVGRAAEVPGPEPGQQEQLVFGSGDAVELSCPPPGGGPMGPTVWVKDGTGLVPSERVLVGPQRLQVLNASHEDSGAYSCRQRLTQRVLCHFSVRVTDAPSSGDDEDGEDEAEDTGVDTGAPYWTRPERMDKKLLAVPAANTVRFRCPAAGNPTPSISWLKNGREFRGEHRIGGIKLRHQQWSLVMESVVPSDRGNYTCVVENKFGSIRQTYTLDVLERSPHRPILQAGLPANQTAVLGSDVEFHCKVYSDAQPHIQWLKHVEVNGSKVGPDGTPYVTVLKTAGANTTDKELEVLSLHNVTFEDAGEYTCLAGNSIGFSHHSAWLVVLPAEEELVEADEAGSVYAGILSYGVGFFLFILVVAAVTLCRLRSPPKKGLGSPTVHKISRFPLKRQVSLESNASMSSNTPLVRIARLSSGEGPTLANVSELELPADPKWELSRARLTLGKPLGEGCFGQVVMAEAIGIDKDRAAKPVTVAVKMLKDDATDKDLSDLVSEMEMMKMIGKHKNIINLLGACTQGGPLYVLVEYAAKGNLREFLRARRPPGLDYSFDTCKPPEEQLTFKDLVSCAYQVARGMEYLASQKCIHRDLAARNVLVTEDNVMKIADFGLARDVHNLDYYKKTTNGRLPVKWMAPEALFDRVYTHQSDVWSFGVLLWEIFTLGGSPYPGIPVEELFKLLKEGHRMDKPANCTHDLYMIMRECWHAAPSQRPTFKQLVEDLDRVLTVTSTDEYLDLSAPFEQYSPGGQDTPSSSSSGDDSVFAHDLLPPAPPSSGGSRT
Excerpt: Time-Resolved Fluorescence Resonance Energy Transfer (TR-FRET) signal (ex340 nm.

FGFR4 (h) = FGFR4 (h) (Homo sapiens, UniProt P22455); assay: FGFR4 (enzymatic assay), TR-FRET; type: biochemical; settings: FGFR 4 pIC50, enzymatic assay
[6] = average values if tested multiple times
[7] = plus IL3 (10 ng/ml murine IL3, counterscreen)

Chain of KDR (h) (P35968 20-1356): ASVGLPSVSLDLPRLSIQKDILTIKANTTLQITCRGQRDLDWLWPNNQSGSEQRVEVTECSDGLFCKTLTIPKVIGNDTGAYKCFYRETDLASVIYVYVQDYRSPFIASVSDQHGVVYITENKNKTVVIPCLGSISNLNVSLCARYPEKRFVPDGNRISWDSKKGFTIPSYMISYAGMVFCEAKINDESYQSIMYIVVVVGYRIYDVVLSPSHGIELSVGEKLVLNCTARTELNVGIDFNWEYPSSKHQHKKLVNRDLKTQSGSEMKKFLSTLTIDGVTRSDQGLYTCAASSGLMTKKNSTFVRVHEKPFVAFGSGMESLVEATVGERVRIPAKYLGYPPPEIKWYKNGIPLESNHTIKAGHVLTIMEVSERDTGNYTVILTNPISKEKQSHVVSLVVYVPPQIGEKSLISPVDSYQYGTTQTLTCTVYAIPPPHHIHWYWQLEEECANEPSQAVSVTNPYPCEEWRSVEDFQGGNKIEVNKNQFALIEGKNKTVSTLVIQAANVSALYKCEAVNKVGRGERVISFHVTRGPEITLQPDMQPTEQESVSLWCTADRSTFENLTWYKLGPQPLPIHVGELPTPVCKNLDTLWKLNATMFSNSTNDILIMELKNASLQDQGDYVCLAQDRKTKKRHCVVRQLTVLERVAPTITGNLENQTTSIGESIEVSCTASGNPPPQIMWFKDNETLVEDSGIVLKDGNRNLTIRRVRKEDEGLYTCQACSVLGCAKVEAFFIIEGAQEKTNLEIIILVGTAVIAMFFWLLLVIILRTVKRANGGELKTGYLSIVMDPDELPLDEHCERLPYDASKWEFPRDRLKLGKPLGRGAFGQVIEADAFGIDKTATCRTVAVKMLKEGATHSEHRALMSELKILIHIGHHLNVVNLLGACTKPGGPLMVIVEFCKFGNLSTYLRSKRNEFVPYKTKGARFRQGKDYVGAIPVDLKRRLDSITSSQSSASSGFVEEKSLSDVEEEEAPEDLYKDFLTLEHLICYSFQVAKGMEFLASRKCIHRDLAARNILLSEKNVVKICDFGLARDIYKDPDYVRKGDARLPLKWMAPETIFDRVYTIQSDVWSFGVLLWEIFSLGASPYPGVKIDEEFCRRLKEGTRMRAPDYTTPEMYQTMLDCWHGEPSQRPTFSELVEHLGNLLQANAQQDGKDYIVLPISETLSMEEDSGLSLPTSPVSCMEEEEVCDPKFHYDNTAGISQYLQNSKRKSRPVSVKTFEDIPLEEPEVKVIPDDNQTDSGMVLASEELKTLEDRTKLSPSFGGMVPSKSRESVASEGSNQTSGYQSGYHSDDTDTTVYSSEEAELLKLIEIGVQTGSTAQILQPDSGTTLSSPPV

| SMILES | IC50 (KDR (h); [6]) [nM] | BAF3-FGFR4 pIC50 [1] | BAF3-FGFR1 (MIN IL3) pIC50 [2] | BAF3-FGFR3 (MIN IL3) pIC50 [3] | IC50 [4, 7] [nM] | IC50 (FGFR1 (h); [6]) [nM] | IC50 [5, 7] [nM] | IC50 (FGFR3 (h); [6]) [nM] | IC50 (FGFR4 (h); [6]) [nM] | IC50 (KDR (h)) [nM] | IC50 (FGFR1 (h)) [nM] | IC50 (FGFR3 (h)) [nM] | IC50 (FGFR4 (h)) [nM] | IC50 [4] [nM] | IC50 [5] [nM] |
| --- | --- | --- | --- | --- | --- | --- | --- | --- | --- | --- | --- | --- | --- | --- | --- |
| COc1ccc(Cl)c(/N=c2\ccc3ncc(-c4cnn(C)c4)nc3n2CC2CCC(=O)N2)c1Cl (stereo not drawn) [Compound 92] | 309 | <5 | <5 | ~5.61 | > 10000 | 61.7 | > 10000 | 46.8 | 562 | – | – | – | – | – | – |
| COc1cc(/N=c2\ccc3ncc(-c4cnn(C)c4)nc3n2CC2CCC(=O)N2)c(F)c(OC)c1 (stereo not drawn) [Compound 45] | 13.5 | 6.59 | 7.14 | 7.07 | > 10000 | 1.48 | > 10000 | 1.35 | 3.98 | – | – | – | – | – | – |
| CNCCN(c1ccc2ncc(-c3cnn(C)c3)nc2n1)c1c(F)c(OC)cc(OC)c1F [Compound 3] | 21.9 | 7.37 | 8.38 | ~8.04 | > 10000 | 1.35 | > 10000 | 2.57 | 6.46 | – | – | – | – | – | – |
| COc1cc(OC)c(F)c(N(CC(O)COC(C)C)c2ccc3ncc(-c4cnn(C)c4)nc3n2)c1 (single isomer, unassigned) [Compound 75] | 23.4 | 7.33 | 7.76 | 7.75 | > 10000 | 2.14 | > 10000 | 1.95 | 2.24 | – | – | – | – | – | – |
| CNCCN(c1ccc2ncc(-c3cnn(C)c3)nc2n1)c1c(Cl)c(OC)cc(OC)c1Cl [Compound 81] | 195 | 5.76 | 7.04 | 6.67 | > 10000 | 5.89 | > 10000 | 8.13 | 70.8 | – | – | – | – | – | – |
| CNCCN(c1ccc2ncc(-c3cnn(C)c3)nc2n1)c1c(F)c(O)cc(OC)c1F [Compound 122] | – | 5.67 | 6.74 | 6.09 | > 10000 | – | > 10000 | – | – | 50.1 | 2.82 | 2.51 | 9.55 | – | – |
| COc1cc(O)cc(N(Cc2ncc[nH]2)c2ccc3ncc(-c4cnn(C)c4)nc3n2)c1F [Compound 95] | 2.75 | 8.03 | 8.83 | ~8.46 | > 10000 | 0.417 | 7410 | 0.447 | 0.537 | – | – | – | – | – | – |
| COCC(O)CN(c1ccc2ncc(-c3cnn(C)c3)nc2n1)c1cc(OC)cc(OC)c1F (single isomer, unassigned) [Compound 58] | 34.7 | 7.09 | 7.51 | 7.43 | > 10000 | 1.35 | > 10000 | 1.26 | 2.14 | – | – | – | – | – | – |
| COc1cc(OC)cc(N(Cc2nc[nH]n2)c2ccc3ncc(-c4cnn(C)c4)nc3n2)c1 [Compound 71] | 19.1 | 7.14 | 7.49 | 7.71 | – | 1.07 | – | 0.776 | 1.62 | – | – | – | – | > 10000 | > 10000 |
| COc1cc(OC)c(F)c(N(Cc2nc[nH]c2C)c2ccc3ncc(-c4cnn(C)c4)nc3n2)c1 [Compound 109] | 20 | ~7.05 | 7.85 | ~7.65 | > 10000 | 1.15 | > 10000 | 1.45 | 2.69 | – | – | – | – | – | – |
| COc1cc(OC)c(F)c(/N=c2\ccc3ncc(-c4cnn(C)c4)nc3n2CC2CCC(=O)N2)c1F (stereo not drawn) [Compound 193] | 7.24 | 7.00 | 8.01 | ~8.06 | > 10000 | 0.55 | > 10000 | 0.417 | 0.955 | – | – | – | – | – | – |
| COc1cc(OC)c(F)c(N(CC2COC(=O)N2)c2ccc3ncc(-c4cnn(C)c4)nc3n2)c1 (stereo not drawn) [Compound 124] | – | ~6.64 | ~7.16 | ~7.16 | > 10000 | – | > 10000 | – | – | 60.3 | 3.09 | 1.55 | 4.27 | – | – |
| COc1cc(/N=c2\ccc3ncc(-c4cnn(C)c4)nc3n2CCNC(C)C)c(F)c(OC)c1 [Compound 37] | 45.7 | 6.78 | 7.78 | ~7.65 | > 10000 | 1.62 | > 10000 | 8.71 | 15.5 | – | – | – | – | – | – |
| COc1cc(OC)c(F)c(N(CCNC(C)C)c2ccc3ncc(-c4cnn(C)c4)nc3n2)c1F [Compound 5] | 79.4 | ~8.21 | 8.7 | 8.3 | > 10000 | 1.58 | 6310 | 1.58 | 6.31 | – | – | – | – | – | – |
| COc1cc(OC)c(F)c(N(Cc2nn[nH]n2)c2ccc3ncc(-c4cnn(C)c4)nc3n2)c1 [Compound 140] | – | <5 | <5 | <5 | > 10000 | – | > 10000 | – | – | 56.2 | 11.7 | 5.62 | 11.7 | – | – |
